# Results as given in BindingDB's records for doi:10.1016/0960-894X(96)00091-1 (1996).
# Target: Endothelin-converting enzyme 1 (Sus scrofa)
# Assay: Compound was evaluated for inhibition of Endothelin-converting enzyme 1 partially purified from porcine primary aortic endothelial cells
row,SMILES,IC50
1,O=C(Cc1ccc(OCc2cccnc2)cc1)N[C@@H](CS)Cc1c[nH]c2ccccc12 [N-[(R)-2-(1H-Indol-3-yl)-1-mercaptomethyl-ethyl]-2-[4-(pyridin-3-ylmethoxy)-phenyl]-acetamide],7.7 µM
2,O=C(Cc1ccc(-c2ccccc2)cc1)N[C@@H](CS)Cc1cccnc1 [2-Biphenyl-4-yl-N-((R)-1-mercaptomethyl-2-pyridin-3-yl-ethyl)-acetamide],5.2 µM

# The remaining compounds from weak to strong by IC50, led by results:
row,IC50,SMILES
1,6.5 µM,O=C(N[C@@H](CS)Cc1c[nH]c2ccccc12)C1CCN(C(=O)Cc2ccc(-c3ccccc3)cc2)CC1 [1-(2-Biphenyl-4-yl-acetyl)-piperidine-4-carboxylic acid [(R)-2-(1H-indol-3-yl)-1-mercaptomethyl-ethyl]-amide]
2,5.4 µM,O=C(CCC(C(=O)O)c1ccccc1)N[C@@H](CS)Cc1c[nH]c2ccccc12 (stereo partly drawn) [4-[(R)-2-(1H-Indol-3-yl)-1-mercaptomethyl-ethylcarbamoyl]-2-phenyl-butyric acid]
3,5.2 µM,O=C(N[C@@H](CS)Cc1c[nH]c2ccccc12)c1cccs1 [Thiophene-2-carboxylic acid [(R)-2-(1H-indol-3-yl)-1-mercaptomethyl-ethyl]-amide]
